These compounds were tested on Escherichia coli (ATCC25922) or Staphylococcus aureus (ATCC25923) (assay: Antibacterial MIC, microdilution method in Mueller-Hinton medium). Conditions: Escherichia coli, 18 h, MIC in E. coli or S. aureus; two-fold serial dilutions 64 to 0.5 μg/ml in duplicate; 18 hours of incubation at 35° C.; read-out: Potency (MIC).
Format: cell-based
Experimental: The antibacterial activity of the Formula I compounds was evaluated against standard bacterial strains by determining the minimal inhibitory concentration (MIC) to block growth. Each drug was assayed by the microdilution method in Mueller-Hinton medium, as recommended by the National Committee for Clinical Laboratory Standards. Approved Standard M7-A5: Methods for Dilution Antimicrobial Susceptibility Tests for Bacteria That Grow Aerobically 5th Ed. (National Committee for Clinical Laboratory Standards, Wayne, Pa., 2000). The tested bacterial strains included Escherichia coli (American Type Collection ATCC25922), Staphylococcus aureus (ATCC25923), and Pseudomonas aeruginosa (ATCC27853). Two-fold serial dilutions of each compound ranging from 64 to 0.5 μg/ml were tested in duplicate. The MIC was determined as the lowest concentration of each compound that prevented bacterial growth after 18 hours of incubation at 35° C. […] The mass of each compound in the Table was confirmed by LC-MS.

MIC | Compound
> 64 µg/mL | COc1nc(Nc2ccc3c(C)cc(=O)oc3c2)nc(N2CCCCC2)n1.Cl [7-[4-((3R,5S)-3,5-DSiamino-piperidin-1-yl)-6-methoxy-[1,3,5]triazin-2-ylamino]-4-methyl-chromen-2-one]
> 64 µg/mL | Cc1cc(Br)ccc1Nc1nc(N2CCCCC2)nc(N2CCCCC2)n1.Cl [4-[4,6-Bis-((3R,5S)-3,5-diamino-piperidin-1-yl)-[1,3,5]triazin-2-ylammino]-benzoic acid methyl ester]
< 16 µg/mL | COc1nc(Nc2ccc(N(Cc3ccccc3)S(=O)(=O)c3ccc(C)cc3)c(O)c2)nc(N2CCCCC2)n1.Cl [N-Benzyl-N-{4-[4-((3R,5S)-3,5-diamino-piperidin-1-yl)-6-methoxy-[1,3,5]triazin-2-ylammino]-2-hydroxy-phenyl}-4-methyl-benzenesulfonamide]
< 64 µg/mL | Cl.N[C@@H]1C[C@H](N)CN(c2nc(Nc3cccc(Br)c3)nc(N3C[C@H](N)C[C@H](N)C3)n2)C1 [N-(3-bromo-phenyl)-4,6-Bis-((3R,5S)-3,5-diamino-piperidin-1-yl)-[1,3,5]triazine-2-amine]
< 16 µg/mL | Cl.N[C@@H]1C[C@H](N)CN(c2nc(Nc3ccc(O)c4ccccc34)nc(N3C[C@H](N)C[C@H](N)C3)n2)C1 [N-(4-hydroxy-naphthalen-1-yl)-4,6-Bis-((3R,5S)-3,5-diamino-piperidin-1-yl)-[1,3,5]triazine-2-amine]
< 64 µg/mL | Cl.O=C(CC(=O)c1ccc(Nc2nc(N3CCCCC3)nc(N3CCCCC3)n2)cc1)Nc1ccccc1Cl [N-(2-Chloro-phenyl)-3-{4-[4-(3S,5R)-3,5-diamino-piperidin-1-yl)-6-((R)-3-hydroxy-piperidin-1-yl)-[1,3,5]triazin-2-ylamino]-phenyl}-3-oxo-propionamide]
< 16 µg/mL | Cl.O=C(Nc1ccc(Nc2nc(N3CCCCC3)nc(N3CCCCC3)n2)cc1Cl)c1ccc(F)c(F)c1O [N-[3-chloro-4-(3,4-difluoro-2-hydroxy-benzoylamino)-pheny]-4,6-Bis-((3R,5S)-3,5-diamino-piperidin-1-yl)-[1,3,5]triazine-2-ammine]
> 64 µg/mL | Cl.c1ccc(N2CCN(c3nc(N4CCCCC4)nc(N4CCCCC4)n3)CC2)nc1 [2-[4-(4-Fluoro-phenyl)-piperiazin-1-yl]-4,6-Bis-((3R,5S)-3,5-diamino-piperidin-1-yl)-[1,3,5]triazine]
< 64 µg/mL | Cc1ccc(C(=O)Nc2ccc(Nc3nc(N(CCN)CCN)nc(N4CCCCC4)n3)cc2O)cc1.Cl [N-{4-[4-[Bis-(2-amino-ethyl)-amino]-6-((3R,5S)-3,5-diamino-piperidin-1-yl-[1,3,5]triazin-2-ylamino]-2-hydroxy-phenyl}-4-methyl-benzamide]

Same assay, conditions: Escherichia coli, 18 h, read-out: Potency (MIC)

Compound | MIC
NC[C@@H]1CN(c2nc(Nc3ccc(NC(=O)c4ccc5ccccc5c4O)cc3)nc(N3C[C@H](N)C[C@H](N)C3)n2)CC[C@@H]1O [1-Hydroxy-naphthalene-2-carboxylic acid {4-[4-((3R,4S)-3-aminomethyl-4-hydroxy-piperidin-1-yl)-6-((3R,5S)-3,5-diamino-piperidin-1-yl)-[1,3,5]triazin-2-ylamino]-phenyl}-amide] | < 16 µg/mL
COc1cccc(C(=O)Nc2ccc(Nc3nc(N4C[C@H](N)C[C@H](N)C4)nc(N4C[C@H](N)C[C@H](N)C4)n3)cc2Cl)c1O [N-[3-chloro-4-(2-hydroxy-3-methoxy-benzoylamino)-phenyl]-4,6-Bis-((3R,5S)-3,5-diamino-piperidin-1-yl)-[1,3,5]triazine-2-amine] | < 16 µg/mL
N[C@@H]1C[C@H](N)CN(c2nc(Nc3ccc(NC(=O)CO)cc3)nc(N3C[C@H](N)C[C@H](N)C3)n2)C1 [N-[4-(2-hydroxy-acetylamino)-phenyl]-4,6-Bis-((3R,5S)-3,5-diamino-piperidin-1-yl)-[1,3,5]triazine-2-amine] | > 64 µg/mL
NC[C@@H]1C[C@H](CN)CN(c2nc(Nc3ccc4c(c3)-c3ccccc3C4=O)nc(N3C[C@H](N)C[C@H](N)C3)n2)C1 [3-[4-((3R,5S)-3,5-Bis-(aminomethyl)-piperidin-1-yl)-6-((3R,5S)-3,5-diamino-piperidin-1-yl)-[1,3,5]triazin-2-ylamino]-fluoren-9-one] | < 64 µg/mL
N[C@@H]1C[C@H](N)CN(c2nc(Nc3ccc(NC(=O)c4cccnc4O)c(O)c3)nc(N3C[C@H](N)C[C@H](N)C3)n2)C1 [N-{3-hydroxy-4-[(2-hydroxy-pyridine-3-carbonyl)-amino]-phenyl}-4,6-Bis-((3R,5S)-3,5-diamino-piperidin-1-yl)-[1,3,5]triazine-2-amine] | < 16 µg/mL
CC(C)CCCCCC(=O)Nc1ccc(Nc2nc(N3C[C@H](N)C[C@H](N)C3)nc(N3C[C@H](N)C[C@H](N)C3)n2)cc1O [N-[3-hydroxy-4-(7-methyl-octanoylamino)-phenyl]-4,6-Bis-((3R,5S)-3,5-diamino-piperidin-1-yl)-[1,3,5]triazine-2-amine] | < 16 µg/mL
Cc1ccc(S(=O)(=O)N(Cc2ccccc2)c2ccc(Nc3nc(N4C[C@H](N)C[C@H](N)C4)nc(N4C[C@H](CN)C[C@H](CN)C4)n3)c(O)c2)cc1 [N-Benzyl-N-{4-[4-((3S,5R)-3,5-bis-(aminomethyl)-piperidin-1-yl)-6-((3R,5S)-3,5-diamino-piperidin-1-yl)-[1,3,5]triazin-2-ylamino]-3-hydroxy-phenyl}-4-methyl-benzenesulfonamide] | < 64 µg/mL
N[C@@H]1C[C@H](N)CN(c2nc(Nc3ccc(NC(=O)c4ccc(Cl)cc4O)c(C(F)(F)F)c3)nc(N3C[C@H](N)C[C@H](N)C3)n2)C1 [N-[4-(4-chloro-2-hydroxy-benzoylamino)-3-trifluoromethyl-phenyl]-4,6-Bis-((3R,5S)-3,5-diamino-piperidin-1-yl)-[1,3,5]triazine-2-amine] | < 16 µg/mL
COc1nc(Nc2ccc(NC(=O)c3ccc(Cl)cc3)c(O)c2)nc(N2C[C@H](N)C[C@H](N)C2)n1 [4-Chloro-N-{4-[4-((3R,5S)-3,5-diamino-piperidin-1-yl)-6-methoxy-[1,3,5]triazin-2-ylamino]-2-hydroxy-phenyl}-benzamide] | < 16 µg/mL
CCCCCC(=O)Nc1ccc(Nc2nc(N3C[C@H](N)C[C@H](N)C3)nc(N3C[C@H](N)C[C@H](N)C3)n2)cc1O [N-(4-hexanoylamino-3-hydroxy-phenyl)-4,6-Bis-((3R,5S)-3,5-diamino-piperidin-1-yl)-[1,3,5]triazine-2-amine] | < 16 µg/mL
N[C@@H]1C[C@H](N)CN(c2nc(Nc3ccc(C(=O)CC(=O)Nc4ccc(Cl)cc4F)cc3)nc(N3C[C@H](N)C[C@H](N)C3)n2)C1 [N-{4-[2-(4-chloro-2-fluoro-phenylcarbamoyl)-acetyl]-phenyl}-4,6-Bis-((3R,5S)-3,5-diamino-piperidin-1-yl)-[1,3,5]triazine-2-amine] | < 16 µg/mL
N[C@@H]1C[C@H](N)CN(c2nc(Nc3ccc(NC(=O)c4cccc(O)c4O)c(O)c3)nc(N3C[C@H](N)C[C@H](N)C3)n2)C1 [N-[4-(2,3-dihydroxy-benzoylamino)-3-hydroxy-phenyl]-4,6-Bis-((3R,5S)-3,5-diamino-piperidin-1-yl)-[1,3,5]triazine-2-amine] | < 16 µg/mL
COc1cccc(OC)c1C(=O)Nc1ccc(Nc2nc(N3C[C@H](N)C[C@H](N)C3)nc(N3C[C@H](N)C[C@H](N)C3)n2)cc1O [N-[4-(2,6-dimethoxy-benzoylamino)-3-hydroxy-phenyl]-4,6-Bis-((3R,5S)-3,5-diamino-piperidin-1-yl)-[1,3,5]triazine-2-amine] | < 64 µg/mL

Source: US7223759B2, “Antibacterial 3,5-diaminopiperidine-substituted aromatic and heteroaromatic compounds” (Anadys Pharmaceuticals, Inc., priority 2003, dated 2007)
